{"source": "patent US20100029575A1", "about": "“N-Oxides of Kappa Receptor Peptides” (priority 2006, published 2010)", "key": {"[1]": {"target": "T1, Kappa Opioid Receptor (Cavia porcellus, UniProt P41144)", "T1 construct": "from tissue; host or cells: guinea pig brain membranes", "experiment": "Kappa opioid receptor binding, competitive displacement of bound radioligand (guinea pig brain membranes)", "details": "for IC50: Kappa Opioid Receptor Binding IC50, guinea pig brain; for Kappa Opioid Receptor Binding Pct Max: guinea pig brain", "from_the_text": "(§1) Receptor assays are well known in the art and kappa opioid receptors from several species have been cloned, as have mu and delta opioid receptors. Kappa opioid receptors as well as mu and delta opioid receptors are classical, seven-transmembrane spanning, G-protein coupled receptors. Although these cloned receptors readily allow a particular candidate compound, e.g., a peptide, to be screened, natural sources of mammalian opioid receptors are also useful for screening, as is well known in the art (Dooley C T et al. Selective ligands for the mu, delta, and kappa opioid receptors identified from a single mixture based tetrapeptide positional scanning combinatorial library. J. Biol. Chem. 273:18848-56, 1998). Thus, screening against both kappa and mu opioid receptors, whether of recombinant or natural origin, may be carried out in order to determine the selectivity of the compound(s) for the kappa relative to the mu opioid receptor.\n(§2) Binding affinity refers to the strength of interaction between ligand and receptor. […] These studies can be performed using cloned kappa and mu opioid receptors expressed in stable transfected cell lines or naturally occurring opioid receptors from a receptor-enriched tissue source, as noted above. In these studies, the test compounds (unlabeled ligands) are used at increasing concentrations to displace the specific binding of a radiolabeled ligand that has high affinity and selectivity for the receptor studied. Tritiated U-69,593 and DAMGO can be used as ligands in kappa and mu opioid receptor studies, respectively. Both ligands are commercially available (NEN-Dupont). DAMGO is an acronym for [D-Ala^2, MePhe^4, Gly-ol^5]-enkephalin. The affinity of the radioligands is defined by the concentration of radioligand that results in half-maximal specific binding (KD) in saturation studies. The affinity of the test compound (unlabeled or cold ligand) is determined in competition binding studies by calculating the inhibitory constant (Ki) according to the following formula:\n(§3) where IC50=Concentration of the cold ligand that inhibits 50% of the specific binding of the radioligand\n(§4) F=free radioligand concentration\n(§5) KD=affinity of the radioligand determined in saturation studies.\n(§6) When performing these assays under specific conditions with relatively low concentrations of receptor, the calculated Ki for the test compound is a good approximation of its dissociation constant KD, which represents the concentration of ligand necessary to occupy one-half (50%) of the binding sites. […]\n(§7) These binding assays employing kappa opioid receptors and mu opioid receptors are straightforward to perform and can be readily carried out with large numbers of compounds to determine whether such compounds are kappa opioid receptor-selective and have high affinity. […]"}, "[2]": {"target": "T2, Mu Opioid Receptor (Rattus norvegicus, UniProt P33535)", "T2 construct": "from tissue; host or cells: rat brain membranes", "experiment": "Mu opioid receptor binding, competitive displacement of bound radioligand (rat brain membranes)", "from_the_text": "as §1, §2, §3, §4, §5, §6, §7"}, "[3]": {"target": "T3, Kappa Opioid Receptor (Mus musculus, UniProt P33534)", "T3 construct": "(cAMP, mouse brain); from tissue; host or cells: mouse brain", "experiment": "Functional second messenger assay, Gi-mediated inhibition of adenylate cyclase (cAMP, mouse brain)", "format": "biochemical", "details": "for EC50: Kappa Opioid Receptor Activity EC50, cAMP; for Kappa Opioid Receptor Activity Pct Max: cAMP"}, "[4]": {"target": "T4, P450 3A4 (Homo sapiens, UniProt P08684)", "experiment": "P450 3A4/BQ inhibition", "format": "in vitro ADME", "experimental": "(§8) Enzyme assays are well known in the art and CYP450 enzymes from several species have been cloned. Although these cloned enzymes readily allow a particular candidate compound, e.g., a peptide, to be screened, natural sources of CYP450 enzymes, e.g., liver microsomes, are also useful for screening, as is well known in the art. Preferred analogs have a Ki for CYP450 enzymes of about 10 micromolar (uM) or more, whereas more preferred analogs have a Ki for […] of about 100 uM or more. For the purpose of identifying useful compounds of the invention, the IC50 is a useful approximation of the Ki."}, "[5]": {"target": "T4, P450 3A4", "experiment": "P450 3A4/BFC inhibition", "format": "in vitro ADME", "experimental": "as §8"}, "[6]": {"target": "P450 2C9 (Homo sapiens, UniProt P11712)", "experiment": "P450 2C9 inhibition", "format": "in vitro ADME", "experimental": "as §8"}, "[7]": {"target": "T5, P450 1A2 (Homo sapiens, UniProt P05177)", "T5 sequence (P05177 1-516)": "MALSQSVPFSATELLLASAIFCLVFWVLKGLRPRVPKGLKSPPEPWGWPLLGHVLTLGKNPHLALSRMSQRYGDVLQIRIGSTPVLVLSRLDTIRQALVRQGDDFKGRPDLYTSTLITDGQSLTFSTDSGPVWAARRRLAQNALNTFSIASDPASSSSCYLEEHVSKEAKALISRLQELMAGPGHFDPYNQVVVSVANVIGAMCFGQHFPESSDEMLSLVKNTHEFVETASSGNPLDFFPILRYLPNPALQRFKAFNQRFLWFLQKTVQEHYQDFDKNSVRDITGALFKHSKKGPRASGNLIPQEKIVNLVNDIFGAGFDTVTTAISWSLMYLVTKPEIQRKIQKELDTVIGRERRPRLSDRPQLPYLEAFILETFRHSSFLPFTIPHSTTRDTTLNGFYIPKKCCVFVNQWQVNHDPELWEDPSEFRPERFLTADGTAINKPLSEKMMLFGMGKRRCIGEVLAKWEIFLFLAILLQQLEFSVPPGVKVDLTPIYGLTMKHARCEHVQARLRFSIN", "experiment": "P450 1A2 inhibition", "format": "in vitro ADME", "experimental": "as §8"}, "[8]": {"test_system": "cytochrome P450 enzymes", "experiment": "Cytochrome P450 enzyme activities", "format": "in vitro ADME", "details": "summary of Table 4", "experimental": "as §8"}}, "note": "Where “and” joins values, the source holds several entries; their conditions need not be identical. Identical values can stand only once. Square brackets hold non-standard residues; d marks the D form. Peptide text beside a SMILES is read from it. * marks the point of attachment. dNle = CCCC[C@@H](N)C(=O)O; X1 = [O-][n+]1ccc(CN*)cc1"}
{"smiles": "CCCC[C@@H](NC(=O)[C@@H](Cc1ccccc1)NC(=O)[C@H](N)Cc1ccccc1)C(=O)N[C@H](CCCNC(=N)N)C(=O)NCc1cc[n+]([O-])cc1", "note": "[Peptide No. 1, H-D-Phe-D-Phe-D-Nle-D-Arg-NH-4-picolyl-N-oxide] (H-[dF][dF][dNle][dR]-X1)", "values": [{"measurement": "IC50", "setting": "[1]; Mean", "result": "~6.3 nM and 6.3 nM"}, {"measurement": "IC50", "setting": "[1]; individual samples", "result": "2.6 nM and 9.4 nM and 4.2 nM"}, {"measurement": "Kappa Opioid Receptor Binding Pct Max", "setting": "[1]; Mean", "result": 109.4, "unit": "Pct"}, {"measurement": "Kappa Opioid Receptor Binding Pct Max", "setting": "[1]; individual samples, listed as Peptide1", "result": "105.2 Pct and 117.3 Pct and 105.6 Pct"}, {"measurement": "Mu Opioid Receptor Binding IC50", "setting": "[2]; rat brain", "result": "too high to determined"}, {"measurement": "maximal binding inhibition at MOR", "setting": "[2]; rat brain membranes", "result": 15.5, "unit": "%"}, {"measurement": "Mu Opioid Receptor Binding Pct Max", "setting": "[2]; rat brain, Sample 1", "result": 15.5, "unit": "Pct"}, {"measurement": "Mu Opioid Receptor Binding IC50", "setting": "[2]; rat brain, listed as Peptide1", "result": "No Fit"}, {"measurement": "EC50", "setting": "[3]; Mean", "result": 0.42, "unit": "nM"}, {"measurement": "EC50", "setting": "[3]; individual samples", "result": "0.3 nM and 0.57 nM"}, {"measurement": "Kappa Opioid Receptor Activity Pct Max", "setting": "[3]; Mean", "result": 101.43, "unit": "Pct"}, {"measurement": "Kappa Opioid Receptor Activity Pct Max", "setting": "[3]; individual samples, listed as Peptide 1", "result": "92.46 Pct and 110.41 Pct"}, {"measurement": "P450 3A4/BQ Inhibition Pct Max", "setting": "[4]; Mean", "result": 18, "unit": "Pct"}, {"measurement": "P450 3A4/BQ Inhibition IC50", "setting": "[4]; individual samples", "result": "No Fit"}, {"measurement": "P450 3A4/BQ Inhibition Pct Max", "setting": "[4]; individual samples", "result": "15 Pct and 21 Pct"}, {"measurement": "P450 3A4/BFC Inhibition Pct Max", "setting": "[5]; Mean", "result": 26, "unit": "Pct"}, {"measurement": "P450 3A4/BFC Inhibition IC50", "setting": "[5]; individual samples", "result": "No Fit"}, {"measurement": "P450 3A4/BFC Inhibition Pct Max", "setting": "[5]; individual samples", "result": "22 Pct and 17 Pct and 40 Pct"}, {"measurement": "IC50", "setting": "[6]", "result": "> 10000", "unit": "nM"}, {"measurement": "P450 2C9 Inhibition Pct Max", "setting": "[6]; Mean", "result": 26, "unit": "Pct"}, {"measurement": "P450 2C9 Inhibition Pct Max", "setting": "[6]; individual samples", "result": "21 Pct and 31 Pct"}, {"measurement": "P450 1A2 Inhibition Pct Max", "setting": "[7]; Mean", "result": 13, "unit": "Pct"}, {"measurement": "P450 1A2 Inhibition IC50", "setting": "[7]; individual samples", "result": "No Fit"}, {"measurement": "P450 1A2 Inhibition Pct Max", "setting": "[7]; individual samples", "result": "15 Pct and 10 Pct"}, {"measurement": "inhibitory activity on several cytochrome P450 enzyme activities", "setting": "[8]", "result": "absence of significant inhibitory activity"}]}
